Source: US7297691B2, “Treatment of sleep disorders with cholinesterase inhibitors” (priority 2003, dated 2007)
Counter-ions that a name gives are not always drawn.

Columns and labels:
[1] = tested on: cholinesterase in hemolyzed whole blood (hemolysate); test: SIGMA DIAGNOSTICS CHOLINESTERASE (PTC) kit, hemolysate ChE activity in blood samples; assay type: biochemical, human; conditions: for Hemolysate ChE activity: blood samples from 3 patients, no Nivalin = 1.00
Protocol: (§1) SIGMA DIAGNOSTICS® CHOLINESTERASE (PTC) kit, available from Sigma Diagnostics, can be used for determining the activity and selectivity of cholinesterase inhibitors.
(§2) Reactions involved in the cholinesterase assay are as follows:
(§3) [drawing 4] 5-thio-2-nitrobenzoic acid is assessed by measuring the absorbance at 405 nm. The rate of change in absorbance at 405 nm is directly proportional to cholinesterase activity.
(§4) The activity of erythrocyte cholinesterase may be calculated on the basis of the measurement of butyrylcholinesterase (pseudocholinesterase) in serum and cholinesterase in hemolyzed whole blood (hemolysate), both measured simultaneously by the method described above, and evaluated according to the hematocrit value according to the formula HchE=(EchE×Hct*)+(PchE×(1−Hct*)) Therefore, EchE=(HchE−(PchE×(1−Hct*))/Hct*. • Hematocrit value expressed as decimal equivalent (i.e. 25%=0.25) In the above formulae, EChE is erythrocyte cholinesterase activity, PChE is plasma cholinesterase activity, HChE is hemolysate cholinesterase activity, and Hct is hematocrit value of the sample.
(§5) Another way of assessing the cholinesterase activity is to measure the plasma cholinesterase and the cholinesterase in purified hemolyzed erythrocytes. By doing this, the values are obtained directly.
(§6) Blood samples from 3 patients are tested with the Sigma test.

[2] = biological target: T1, butyrylcholinesterase (pseudocholinesterase) in serum (Homo sapiens, UniProt P06276); test: SIGMA DIAGNOSTICS CHOLINESTERASE (PTC) kit, serum ChE activity in blood samples; assay type: biochemical; conditions: for Serum ChE activity: blood samples from 3 patients, no Nivalin = 1.00
T1 construct: butyrylcholinesterase (pseudocholinesterase) in serum; from tissue; host or cells: serum of patients
T1 sequence (P06276 29-602): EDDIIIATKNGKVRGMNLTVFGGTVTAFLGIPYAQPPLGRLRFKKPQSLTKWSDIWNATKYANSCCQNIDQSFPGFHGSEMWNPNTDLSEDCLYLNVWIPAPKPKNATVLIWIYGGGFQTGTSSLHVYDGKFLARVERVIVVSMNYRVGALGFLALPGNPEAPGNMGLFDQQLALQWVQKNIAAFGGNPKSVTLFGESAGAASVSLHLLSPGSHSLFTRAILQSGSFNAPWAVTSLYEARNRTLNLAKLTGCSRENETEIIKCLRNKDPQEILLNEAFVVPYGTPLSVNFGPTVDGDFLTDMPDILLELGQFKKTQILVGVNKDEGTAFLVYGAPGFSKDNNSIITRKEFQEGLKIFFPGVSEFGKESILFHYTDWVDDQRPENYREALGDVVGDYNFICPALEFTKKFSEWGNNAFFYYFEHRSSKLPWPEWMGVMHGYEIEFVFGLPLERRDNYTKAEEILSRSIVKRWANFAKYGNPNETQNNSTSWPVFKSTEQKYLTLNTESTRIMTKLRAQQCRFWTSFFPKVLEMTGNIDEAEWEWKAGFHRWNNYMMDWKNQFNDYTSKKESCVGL
Protocol: as §1, §2, §3, §4, §5, §6

[3] = in humans; cited from earlier work
[4] = in vivo; cited from earlier work
[5] = cited from earlier work
[6] = side effects in patients treated; assay type: in vivo, human
[7] = cited from earlier work; remark: listed apart in the source
[8] = 1.25 μg/ml Nivalin added in vitro
[9] = 2.50 μg/ml Nivalin added in vitro
[10] = 1.25 and 2.5 μg/ml added in vitro

| Compound | Hemolysate ChE activity [1, 8] | Hemolysate ChE activity [1, 9] | change of hemolysate cholinesterase activity with increased concentration [1, 10] | Serum ChE activity [2, 8] | Serum ChE activity [2, 9] | change of serum activity as a response to the addition [2, 10] | passing the blood-brain barrier [3] | elimination half life [4] | lipid solubility [5] | more severe side effects, share of patients [6] | vomiting and dizziness, share of patients ([6]; disappearing after about one week in most cases) | slight nausea, share of cases ([6]; disappearing after about one week of treatment) | complete elimination of metabolites and galantamine [4] | solubility in water ([5]; at room temperature) | toxicity ([7]; in therapeutic concentrations) | severe side effects ([7]; in therapeutically effective dosages) | reported cases of liver toxicity or serious side effects ([7]; use as anticurare agent in anesthesiology since around 1958) |
| --- | --- | --- | --- | --- | --- | --- | --- | --- | --- | --- | --- | --- | --- | --- | --- | --- | --- |
| COc1ccc2c3c1O[C@H]1C[C@@H](O)C=C[C@@]31CCN(C)C2 [Nivalin, Galantamine hydrobromide] | 0.96 | 0.86 | significant reduction | 0.98 | 0.97 | do not show any statistically significant change | transverses the blood brain barrier easily | over four hours | lipid soluble | – | – | – | – | – | – | – | – |
| [4aS-(4aα,6β,8aR*)]-4a,5,9,10 11,12-hexahydro-3-methoxy-11-methyl-6H-benzofuro[3a,3,2-ef][2]benzazepin-6-ol [Galantamine] | – | – | – | – | – | – | – | – | – | 4-6% | 5-10% | about 30% | 72 h | only sparingly soluble | relatively low toxicity | no severe side effects | without any reported case |
